Earlier results as cited in patent US20140032198A1, “APPLICATION OF MULTIDIMENSIONAL MATRIX FOR DRUG MOLECULAS DESIGN AND THE METHODOLOGIES FOR DRUG MOLECULAR DESIGN” (priority 2011, published 2014).

Conditions: qualitative comparison within captopril series, historical data

Row | Compound | toxicity and side effects profiles
1 | CCC(=O)O[C@@H](O[P@](=O)(CCCCc1ccccc1)CC(=O)N1C[C@H](C2CCCCC2)C[C@H]1C(=O)O)C(C)C [Fosinopril] | relatively weaker
2 | CCOC(=O)[C@H](CCc1ccccc1)N[C@@H](C)C(=O)N1Cc2ccccc2C[C@H]1C(=O)O [Quinapril] | relatively weaker
3 | Benazepril | relatively weaker
4 | Lisinopril | relatively weaker
5 | Ramipril | best toxicity and side effects profiles
